The record followed here is patent US20040082635A1, “Fused cyclic compounds and medicinal use thereof” (priority 2001, published 2004).

Where a name gives a salt, the structure may show the parent alone.

In the test the target is T1, HCV polymerase (Hepatitis C virus genotype 1b, UniProt P26663).
T1 construct: a region encoding NS5B (591 amino acids; J Virol 1991 Mar, 65(3), 1105-13) was amplified by PCR; 6 His (N); made in house; host or cells: Escherichia coli
T1 sequence (P26663 2420-3010): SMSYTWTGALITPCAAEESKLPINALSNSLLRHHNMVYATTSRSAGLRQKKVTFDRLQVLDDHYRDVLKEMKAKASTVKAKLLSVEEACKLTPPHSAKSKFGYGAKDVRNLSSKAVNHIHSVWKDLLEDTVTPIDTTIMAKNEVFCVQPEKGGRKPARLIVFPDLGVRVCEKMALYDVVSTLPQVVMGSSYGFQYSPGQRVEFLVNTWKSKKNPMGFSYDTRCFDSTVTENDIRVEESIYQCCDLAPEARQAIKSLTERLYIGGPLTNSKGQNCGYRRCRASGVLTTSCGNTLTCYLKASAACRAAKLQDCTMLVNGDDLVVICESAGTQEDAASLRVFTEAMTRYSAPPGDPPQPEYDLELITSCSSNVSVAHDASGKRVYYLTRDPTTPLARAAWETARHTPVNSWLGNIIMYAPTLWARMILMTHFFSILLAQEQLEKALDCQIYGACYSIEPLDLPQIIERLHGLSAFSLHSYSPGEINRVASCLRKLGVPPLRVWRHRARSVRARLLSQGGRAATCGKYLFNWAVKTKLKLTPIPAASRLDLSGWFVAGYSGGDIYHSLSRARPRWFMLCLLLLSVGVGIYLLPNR
As to the kind of experiment: biochemical. The note with it: read-out: HCV polymerase inhibitory activity IC50.
Turning to `O=C(O)c1ccc2c(c1)nc(-c1ccc(OCc3cc(C(=O)N4CC[C@H](O)[C@H](O)C4)ccc3-c3ccc(Cl)cc3)cc1)n2C1CCCCC1` (stereo in doubt) [Example 348, 2-{4-[2-(4-chlorophenyl)-5-(3,4-dihydroxypiperidin-1-ylcarbonyl)benzyloxy]phenyl}-1-cyclohexylbenzimidazole-5-carboxylic acid hydrochloride], the IC50 stood at 13 nM. The same measure for `O=C(O)c1ccc2c(c1)nc(-c1ccc(/C=C/c3ccccc3)cc1)n2C1CCCCC1` [Example 11, 1-cyclohexyl-2-{4-[(E)-2-phenylvinyl]phenyl}-benzimidazole-5-carboxylic acid]: 530 nM; for `O=C(O)c1ccc2c(c1)nc(-c1ccc(OCc3ccccc3)cc1)n2C1CCCC1` [Example 12, 2-(4-benzyloxyphenyl)-1-cyclopentylbenzimidazole-5-carboxylic acid]: 600 nM. Turning to `CC(C)(C)c1ccc(COc2ccc(-c3nc4cc(C(=O)O)ccc4n3C3CCCC3)cc2)cc1` [Example 43, 2-[4-(4-tert-butylbenzyloxy)phenyl]-1-cyclopentylbenzimidazole-5-carboxylic acid], the IC50 stood at 580 nM. For the compound `O=C(O)c1ccc(COc2ccc(-c3nc4cc(C(=O)O)ccc4n3C3CCCC3)cc2)cc1` [Example 44, 2-[4-(4-carboxybenzyloxy)phenyl]-1-cyclopentylbenzimidazole-5-carboxylic acid], the IC50 worked out at 950 nM. Consider `O=C(O)c1ccc2c(c1)nc(-c1ccc(OCc3ccc(Cl)cc3)cc1)n2C1CCCC1` [Example 45, 2-[4-(4-chlorobenzyloxy)phenyl]-1-cyclopentylbenzimidazole-5-carboxylic acid], for which the IC50 was 400 nM.

Take `O=C(O)c1ccc2c(c1)nc(-c1ccc(OCc3ccc(Cl)s3)cc1)n2C1CCCC1` [Example 46, 2-{4-[(2-chloro-5-thienyl)methoxy]phenyl}-1-cyclopentylbenzimidazole-5-carboxylic acid]: the IC50 turned out to be 470 nM. In the case of `O=C(O)c1ccc2c(c1)nc(-c1ccc(OCc3ccc(C(F)(F)F)cc3)cc1)n2C1CCCC1` [Example 47, 1-cyclopentyl-2-[4-(4-trifluoromethylbenzyloxy)phenyl]benzimidazole-5-carboxylic acid], the IC50 is 540 nM. `COc1ccc(COc2ccc(-c3nc4cc(C(=O)O)ccc4n3C3CCCC3)cc2)cc1` [Example 48, 1-cyclopentyl-2-[4-(4-methoxybenzyloxy)phenyl]benzimidazole-5-carboxylic acid]: the IC50 came out at 440 nM. In the case of `O=C(O)c1ccc2c(c1)nc(-c1ccc(OCc3ccncc3)cc1)n2C1CCCC1` [Example 49, 1-cyclopentyl-2-[4-(4-pyridylmethoxy)phenyl]benzimidazole-5-carboxylic acid hydrochloride], the IC50 amounted to 940 nM. Then `Cc1noc(C)c1COc1ccc(-c2nc3cc(C(=O)O)ccc3n2C2CCCC2)cc1` [Example 51, 1-cyclopentyl-2-{4-[(3,5-dimethyl-4-isoxazolyl)methoxy]phenyl}-benzimidazole-5-carboxylic acid], with 1000 nM; and `O=C(O)c1ccc2c(c1)nc(-c1ccc(OCc3ccccc3Cl)cc1)n2C1CCCC1` [Example 54, 2-[4-(2-chlorobenzyloxy)phenyl]-1-cyclopentylbenzimidazole-5-carboxylic acid], with 560 nM. The same measure for `O=C(O)c1ccc2c(c1)nc(-c1ccc(OCc3cccc(Cl)c3)cc1)n2C1CCCC1` [Example 55, 2-[4-(3-chlorobenzyloxy)phenyl]-1-cyclopentylbenzimidazole-5-carboxylic acid]: 360 nM; for `O=C(O)c1ccc2c(c1)nc(-c1ccc(OCc3ccc(Cl)c(Cl)c3)cc1)n2C1CCCC1` [Example 68, 1-cyclopentyl-2-[4-(3,4-dichlorobenzyloxy)phenyl]benzimidazole-5-carboxylic acid]: 280 nM; for `O=C(O)c1ccc2c(c1)nc(-c1ccc(OC(c3ccccc3)c3ccccc3)cc1)n2C1CCCC1` [Example 70, 1-cyclopentyl-2-[4-(diphenylmethoxy)phenyl]benzimidazole-5-carboxylic acid]: 190 nM.

As for `O=C(O)c1ccc2c(c1)nc(-c1ccc(OCCc3ccccc3)cc1)n2C1CCCC1` [Example 71, 1-cyclopentyl-2-(4-phenethyloxyphenyl)benzimidazole-5-carboxylic acid], the IC50 stood at 620 nM. `O=C(O)c1ccc2c(c1)nc(-c1ccc(CCc3ccccc3)cc1)n2C1CCCCC1` [Example 77, 1-cyclohexyl-2-(4-phenethylphenyl)benzimidazole-5-carboxylic acid]: the IC50 is 510 nM.

For `O=C(O)c1ccc2c(c1)nc(-c1ccc(OCc3cc(Cl)cc(Cl)c3)cc1)n2C1CCCCC1` [Example 81, 1-cyclohexyl-2-[4-(3,5-dichlorobenzyloxy)phenyl]benzimidazole-5-carboxylic acid], the IC50 was found to be 180 nM. As to `O=C(O)c1ccc2c(c1)nc(-c1ccc(OC(c3ccccc3)c3ccccc3)cc1)n2C1CCCCC1` [Example 82, 1-cyclohexyl-2-[4-(diphenylmethoxy)phenyl]benzimidazole-5-carboxylic acid], the IC50 is 97 nM.

As to `CC(C)(C)c1cc(COc2ccc(-c3nc4cc(C(=O)O)ccc4n3C3CCCCC3)cc2)cc(C(C)(C)C)c1` [Example 83, 1-cyclohexyl-2-[4-(3,5-di-tert-butylbenzyloxy)phenyl]-benzimidazole-5-carboxylic acid], the IC50 turned out to be 520 nM. Then `O=C(O)c1ccc2c(c1)nc(-c1ccc(OCCc3ccc4ccccc4c3)cc1)n2C1CCCCC1` [Example 85, 1-cyclohexyl-2-{4-[2-(2-naphthyl)ethoxy]phenyl}benzimidazole-5-carboxylic acid], with 170 nM. `O=C(O)c1ccc2c(c1)nc(-c1ccc(OCc3cccc4ccccc34)cc1)n2C1CCCCC1` [Example 86, 1-cyclohexyl-2-[4-(1-naphthyl)methoxyphenyl]benzimidazole-5-carboxylic acid]: the IC50 was 130 nM. Then `O=C(O)c1ccc2c(c1)nc(-c1ccc(N(Cc3ccccc3)Cc3ccccc3)cc1)n2C1CCCCC1` [Example 87, 1-cyclohexyl-2-[4-(dibenzylamino)phenyl]benzimidazole-5-carboxylic acid], with 800 nM; and `O=C(O)c1ccc2c(c1)nc(-c1ccc(OCc3ccccc3-c3ccccc3)cc1)n2C1CCCCC1` [Example 88, 2-[4-(2-biphenylylmethoxy)phenyl]-1-cyclohexylbenzimidazole-5-carboxylic acid], with 92 nM; and `O=C(O)c1ccc2c(c1)nc(-c1ccc(OC(Cc3ccccc3)Cc3ccccc3)cc1)n2C1CCCCC1` [Example 90, 1-cyclohexyl-2-[4-(dibenzylmethoxy)phenyl]benzimidazole-5-carboxylic acid], with 200 nM. With `O=C(O)c1ccc2c(c1)nc(-c1ccc(OCC(=O)c3ccccc3)cc1)n2C1CCCCC1` [Example 91, 2-(4-benzoylmethoxyphenyl)-1-cyclohexylbenzimidazole-5-carboxylic acid], the IC50 was 530 nM.

For the compound `O=C(O)c1ccc2c(c1)nc(-c1ccc(OCCOc3ccccc3)cc1)n2C1CCCCC1` [Example 96, 1-cyclohexyl-2-{4-[2-(phenoxy)ethoxy]phenyl}benzimidazole-5-carboxylic acid], the IC50 is 250 nM.

With `O=C(O)c1ccc2c(c1)nc(-c1ccc(OCCCCCc3ccccc3)cc1)n2C1CCCCC1` [Example 98, 1-cyclohexyl-2-[4-(5-phenylpentyloxy)phenyl]benzimidazole-5-carboxylic acid], the IC50 was found to be 300 nM.

On to `O=C(O)c1ccc2c(c1)nc(-c1cc(OCc3ccccc3)no1)n2C1CCCCC1` [Example 99, 2-(3-benzyloxy-5-isoxazolyl)-1-cyclohexylbenzimidazole-5-carboxylic acid], for which the IC50 turned out to be 530 nM.

Turning to `O=C(O)c1ccc2c(c1)nc(-c1ccc(OCc3ccccc3)nc1)n2C1CCCCC1` [Example 100, 2-(2-benzyloxy-5-pyridyl)-1-cyclohexylbenzimidazole-5-carboxylic acid], the IC50 was 780 nM. With `O=C(O)c1ccc2c(c1)nc(-c1ccc(OCCc3cccc4ccccc34)cc1)n2C1CCCCC1` [Example 103, 1-cyclohexyl-2-{4-[2-(1-naphthyl)ethoxy]phenyl}benzimidazole-5-carboxylic acid], the IC50 is 170 nM. For the compound `O=C(O)c1ccc2c(c1)nc(-c1ccc(Oc3ccccc3OCc3ccccc3)cc1)n2C1CCCCC1` [Example 104, 2-[4-(2-benzyloxyphenoxy)phenyl]-1-cyclohexylbenzimidazole-5-carboxylic acid], the IC50 was found to be 73 nM. For the compound `O=C(O)c1ccc2c(c1)nc(-c1ccc(Oc3cccc(OCc4ccccc4)c3)cc1)n2C1CCCCC1` [Example 105, 2-[4-(3-benzyloxyphenoxy)phenyl]-1-cyclohexylbenzimidazole-5-carboxylic acid], the half-inhibitory concentration (IC50) came to 76 nM.

As for `O=C(O)c1ccc2c(c1)nc(-c1ccc(Oc3ccccc3O)cc1)n2C1CCCCC1` [Example 106, 1-cyclohexyl-2-[4-(2-hydroxyphenoxy)phenyl]benzimidazole-5-carboxylic acid], the IC50 came to 400 nM. With `O=C(O)c1ccc2c(c1)nc(-c1ccc(Oc3cccc(O)c3)cc1)n2C1CCCCC1` [Example 107, 1-cyclohexyl-2-[4-(3-hydroxyphenoxy)phenyl]benzimidazole-5-carboxylic acid], the IC50 came out at 110 nM.

For `COc1ccccc1Oc1ccc(-c2nc3cc(C(=O)O)ccc3n2C2CCCCC2)cc1` [Example 108, 1-cyclohexyl-2-[4-(2-methoxyphenoxy)phenyl]benzimidazole-5-carboxylic acid], the IC50 turned out to be 210 nM. The same measure for `COc1cccc(Oc2ccc(-c3nc4cc(C(=O)O)ccc4n3C3CCCCC3)cc2)c1` [Example 109, 1-cyclohexyl-2-[4-(3-methoxyphenoxy)phenyl]benzimidazole-5-carboxylic acid]: 110 nM; for `CCCOc1ccccc1Oc1ccc(-c2nc3cc(C(=O)O)ccc3n2C2CCCCC2)cc1` [Example 110, 1-cyclohexyl-2-[4-(2-propoxyphenoxy)phenyl]benzimidazole-5-carboxylic acid]: 240 nM.

The term IC50 denotes the concentration that gives 50% inhibition.
